For this assay, the system named is Aβ42 production. Briefly: Quantification of Aβ peptide in culture of neurons from rat fetus brain (Aβ ELISA). Type of assay: cell-based. To be noted: Rattus norvegicus, Neuron, 72 h, rat primary neuronal culture (embryonic day 18 Wistar rat cerebral cortex); cultured three days after addition of compound; Aβx-42 ELISA of the medium; read-out: Aβ42 production reducing effect IC50. As for the experimental part:
Quantification of Aβ Peptide in Culture of Neurons from Rat Fetus Brain
(1) Rat Primary Neuronal Culture
Primary neuronal cultures were prepared from the cerebral cortex of embryonic day 18 Wistar rats (Charles River Japan, Yokohama, Japan). Specifically, the embryos were aseptically removed from pregnant rats under ether anesthesia. The brain was isolated from the embryo and immersed in an ice-cold L-15 medium (Invitrogen Corp. Cat #11415-064, Carlsbad, Calif., USA, or SIGMA L1518, for example). The cerebral cortex was collected from the isolated brain under a stereoscopic microscope. The cerebral cortex fragments collected were enzymatically treated in an enzyme solution containing 0.25% trypsin (Invitrogen Corp. Cat #15050-065, Carlsbad, Calif., USA) and 0.01% DNase (Sigma D5025, St. Louis, Mo., USA) at 37° C. for 30 minutes to disperse the cells. Here, the enzymatic reaction was stopped by adding inactivated horse serum to the solution. The enzymatically treated solution was centrifuged at 1,500 rpm for five minutes to remove the supernatant. 5 to 10 ml of a medium was added to the resulting cell mass. Neurobasal medium (Invitrogen Corp. Cat #21103-049, Carlsbad, Calif., USA) supplemented with 2% B27 supplement (Invitrogen Corp. Cat #17504-044, Carlsbad, Calif., USA), 25 μM 2-mercaptoethanol (2-ME, WAKO Cat #139-06861, Osaka, Japan), 0.5 mM L-glutamine (Invitrogen Corp. Cat #25030-081, Carlsbad, Calif., USA), and Antibiotics-Antimycotics (Invitrogen Corp. Cat #15240-062, Carlsbad, Calif., USA) was used as the medium (Neurobasal/B27/2-ME). However, the above Neurobasal medium not supplemented with 2-ME (Neurobasal/B27) was used for the assay. The cells were redispersed by mild pipetting of the cell mass to which the medium was added. The cell dispersion was filtered through a 40-μm nylon mesh (Cell Strainer, Cat #35-2340, Becton Dickinson Labware, Franklin Lakes, N.J., USA) to remove the remaining cell mass, and thus a neuronal cell suspension was obtained. The neuronal cell suspension was diluted with the medium and then plated in a volume of 100 μl/well at an initial cell density of 5×10^5 cells/cm^2 in a 96-well polystyrene culture plate pre-coated with poly-L or D-lysine (Falcon Cat #35-3075, Becton Dickinson Labware, Franklin Lakes, N.J., USA coated with poly-L-lysine using the method shown below, or BIOCOAT™ cell environments Poly-D-lysine cell ware 96-well plate, Cat #35-6461, Becton Dickinson Labware, Franklin Lakes, N.J., USA). Poly-L-lysine coating was carried out as follows. 100 μg/ml of a poly-L-lysine (SIGMA P2636, St. Louis, Mo., USA) solution was aseptically prepared with a 0.15 M borate buffer (pH 8.5). 100 μl/well of the solution was added to the 96-well polystyrene culture plate and incubated at room temperature for one or more hours or at 4° C. overnight or longer. The coated 96-well polystyrene culture plate was washed with sterile water four or more times, and then dried or rinsed with, for example, sterile PBS or medium, and used for cell plating. The plated cells were cultured in the culture plate at 37° C. in 5% CO2-95% air for one day. Then, the total amount of the medium was replaced with a fresh Neurobasal™/B27/2-ME medium, and then the cells were cultured for further three days.
The drug was added to the culture plate on Day 4 of culture as follows. The total amount of the medium was removed from the wells, and 180 μl/well of Neurobasal medium not containing 2-ME and containing 2% B-27 (Neurobasal/B27) was added thereto. A solution of the test compound in dimethyl sulfoxide (hereinafter abbreviated as DMSO) was diluted with Neurobasal/B27 at 10-fold of the final concentration. 20 μl/well of the dilution was added to and sufficiently mixed with the medium. The final DMSO concentration was 1% or less. Only DMSO was added to the control group.
The cells were cultured for three days after addition of the compound, and the total amount of the medium was collected. […]
Background: ELISA stands for enzyme-linked immunosorbent assay.

18 compounds from patent US7935815B2, “Imidazoyl pyridine compounds and salts thereof” (Eisai R&D Management Co., Ltd., priority 2007, dated 2011) can be followed below.

Take `COc1nc(/C=C/c2nc3n(n2)CCC[C@H]3c2ccc(F)cc2Cl)ccc1-n1cnc(C)c1` (single isomer, unassigned) [Example 187, (−)-8-(2-chloro-4-fluorophenyl)-2-{(E)-2-[6-methoxy-5-(4-methyl-1H-imidazol-1-yl)pyridin-2-yl]vinyl}-5,6,7,8-tetrahydro-[1,2,4]triazolo[1,5-a]pyridine]: the IC50 was 38 nM.

Take `COc1nc(/C=C/c2nc3n(n2)CCCC3c2cccc(F)c2C)ccc1-n1cnc(C)c1` (single isomer, unassigned; (-)) [Example 333, (−)-8-(3-fluoro-2-methylphenyl)-2-{(E)-2-[6-methoxy-5-(4-methyl-1H-imidazol-1-yl)pyridin-2-yl]vinyl}-5,6,7,8-tetrahydro-[1,2,4]triazolo[1,5-a]pyridine]: the IC50 turned out to be 10 nM.

Take `COc1cc(/C=C/c2nc3n(n2)CCC[C@H]3C2CCCCC2)ccc1-n1cnc(C)c1` (single isomer, unassigned) [Example 114, (−)-8-cyclohexyl-2-{(E)-2-[3-methoxy-4-(4-methyl-1H-imidazol-1-yl)phenyl]vinyl}-5,6,7,8-tetrahydro[1,2,4]triazolo[1,5-a]pyridine]: the 50% inhibitory concentration (IC50) was 51 nM.

Consider `COc1cc(/C=C/c2nc3n(n2)CCCC3c2ccccc2C(F)(F)F)ccc1-n1cnc(C)c1` (single isomer, unassigned; (-)) [Example 311, (−)-2-{(E)-2-[3-methoxy-4-(4-methyl-1H-imidazol-1-yl)phenyl]vinyl}-8-(2-trifluoromethylphenyl)-5,6,7,8-tetrahydro-[1,2,4]triazolo[1,5-a]pyridine], for which the concentration for half-maximal inhibition (IC50) amounted to 11 nM.

For `COc1nc(/C=C/c2nc3n(n2)CCC(C)N3c2ccccc2C(F)(F)F)ccc1-n1cnc(C)c1` (stereo not drawn) [Example 373, 2-{(E)-2-[6-methoxy-5-(4-methyl-1H-imidazol-1-yl)pyridin-2-yl]vinyl}-5-methyl-4-(2-trifluoromethylphenyl)-4,5,6,7-tetrahydro-[1,2,4]triazolo[1,5-a]pyrimidine], the 50% inhibitory concentration (IC50) was 29 nM.

For the compound `COc1cc(/C=C/c2nc3n(n2)CCC[C@]3(O)c2ccc(C(C)C)cc2)ccc1-n1cnc(C)c1` (single isomer, unassigned) [Example 55, (−)-8-(4-isopropylphenyl)-2-{(E)-2-[3-methoxy-4-(4-methyl-1H-imidazol-1-yl)phenyl]vinyl}-5,6,7,8-tetrahydro[1,2,4]triazolo[1,5-a]pyridin-8-ol], the IC50 amounted to 28 nM.

As to `CCCCC(O)c1ccc([C@H]2CCCn3nc(/C=C/c4ccc(-n5cnc(C)c5)c(OC)c4)nc32)cc1` (single isomer, unassigned) [Example 19, 1-{4-{2-{(E)-2-[3-methoxy-4-(4-methyl-1H-imidazol-1-yl)phenyl]vinyl}-5,6,7,8-tetrahydro[1,2,4]triazolo[1,5-a]pyridin-8-yl}phenyl}pentan-1-ol], the IC50 came to 43 nM.

Take `COc1nc(/C=C/c2nc3n(n2)CCC3c2cc(F)ccc2C(F)(F)F)ccc1-n1cnc(C)c1` (stereo not drawn) [Example 392, 7-(5-fluoro-2-trifluoromethylphenyl)-2-{(E)-2-[6-methoxy-5-(4-methyl-1H-imidazol-1-yl)pyridin-2-yl]vinyl}-6,7-dihydro-5H-pyrrolo[1,2-b][1,2,4]triazole]: the 50% inhibitory concentration (IC50) was determined as 22 nM.

On to `COc1cc(/C=C/c2nc3n(n2)CCCC3c2ccc(C(C)C)cc2)ccc1-n1cnc(C)c1` (single isomer, unassigned; (-)) [Example 5, (−)-8-(4-isopropylphenyl)-2-{(E)-2-[3-methoxy-4-(4-methyl-1H-imidazol-1-yl)phenyl]vinyl}-5,6,7,8-tetrahydro[1,2,4]triazolo[1,5-a]pyridine], for which the half-maximal inhibitory concentration (IC50) was 21 nM.

As to `COc1nc(/C=C/c2nc3n(n2)CC[C@@H]3c2cc(F)c(F)c(F)c2)ccc1-n1cnc(C)c1` (single isomer, unassigned) [Example 254, (−)-2-{(E)-2-[6-methoxy-5-(4-methyl-1H-imidazol-1-yl)pyridin-2-yl]vinyl}-7-(3,4,5-trifluorophenyl)-6,7-dihydro-5H-pyrrolo[1,2-b][1,2,4]triazole], the IC50 came to 50 nM.

Consider `COc1cc(/C=C/c2nc3n(n2)C[C@H](C)C[C@@H]3c2ccc(F)cc2)ccc1-n1cnc(C)c1` [Example 97, (6R,8R)-8-(4-fluorophenyl)-2-{(E)-2-[3-methoxy-4-(4-methyl-1H-imidazol-1-yl)phenyl]vinyl}-6-methyl-5,6,7,8-tetrahydro-[1,2,4]triazolo[1,5-a]pyridine], for which the half-inhibitory concentration (IC50) was determined as 38 nM.

Regarding `COc1cc(/C=C/c2nc3n(n2)CCCC3c2ccc(Br)cc2)ccc1-n1cnc(C)c1` (single isomer, unassigned; (-)) [Example 20, (−)-8-(4-bromophenyl)-2-{(E)-2-[3-methoxy-4-(4-methyl-1H-imidazol-1-yl)phenyl]vinyl}-5,6,7,8-tetrahydro-[1,2,4]triazolo[1,5-a]pyridine], the IC50 was found to be 30 nM.

On to `COc1cc(/C=C/c2nc3n(n2)CCCC3c2ccc(F)cc2)cnc1-n1cnc(C)c1` (single isomer, unassigned) [Example 212, (−)-8-(4-fluorophenyl)-2-{(E)-2-[5-methoxy-6-(4-methyl-1H-imidazol-1-yl)pyridin-3-yl]vinyl}-5,6,7,8-tetrahydro-[1,2,4]triazolo[1,5-a]pyridine], for which the IC50 was found to be 100 nM.

Take `COc1nc(/C=C/c2nc3n(n2)CCOC3c2ccc(Cl)cc2)ccc1-n1cnc(C)c1` (single isomer, unassigned) [Example 262, (−)-8-(4-chlorophenyl)-2-{(E)-2-[6-methoxy-5-(4-methyl-1H-imidazol-1-yl)pyridin-2-yl]vinyl}-5,6-dihydro-8H-[1,2,4]triazolo[5,1-c][1,4]oxazine]: the half-maximal inhibitory concentration (IC50) was determined as 74 nM.

For `COc1nc(/C=C/c2nc3n(n2)C(C)CCC3c2ccccc2C(F)(F)F)ccc1-n1cnc(C)c1` (stereo not drawn) [Example 361, 2-{(E)-2-[6-methoxy-5-(4-methyl-1H-imidazol-1-yl)pyridin-2-yl]vinyl}-5-methyl-8-(2-trifluoromethylphenyl)-5,6,7,8-tetrahydro-[1,2,4]triazolo[1,5-a]pyridine], the IC50 was found to be 12 nM.

In the case of `COc1nc(/C=C/c2nc3n(n2)CCCC3c2ccccc2Br)ccc1-n1cnc(C)c1` (single isomer, unassigned; (-)) [Example 290, (−)-8-(2-bromophenyl)-2-{(E)-2-[6-methoxy-5-(4-methyl-1H-imidazol-1-yl)pyridin-2-yl]vinyl}-5,6,7,8-tetrahydro-[1,2,4]triazolo[1,5-a]pyridine], the 50% inhibitory concentration (IC50) was determined as 16 nM.

Consider `COc1nc(/C=C/c2nc3n(n2)CCC[C@H]3c2cccc3ccccc23)ccc1-n1cnc(C)c1` (single isomer, unassigned) [Example 199, (+)-2-{(E)-2-[6-methoxy-5-(4-methyl-1H-imidazol-1-yl)pyridin-2-yl]vinyl}-8-(naphthalen-1-yl)-5,6,7,8-tetrahydro-[1,2,4]triazolo[1,5-a]pyridine], for which the IC50 was 23 nM.

With `COc1nc(/C=C/c2nc3n(n2)CCC[C@H]3c2cccc(C)c2F)ccc1-n1cnc(C)c1` (single isomer, unassigned) [Example 282, (−)-8-(2-fluoro-3-methylphenyl)-2-{(E)-2-[6-methoxy-5-(4-methyl-1H-imidazol-1-yl)pyridin-2-yl]vinyl}-5,6,7,8-tetrahydro-[1,2,4]triazolo[1,5-a]pyridine], the IC50 was 29 nM.

Usually IC50 stands for the concentration that inhibits the measured activity by half.
